Reference: patent US10172356B2, “Bipyridine compound and use of same for noxious arthropod control” (Sumitomo Chemical Company, Limited, priority 2015, dated 2019)

Experiments:
Assay type in all cases: in vivo
[1] = tested on: cotton aphid (Aphis gossypii); assay: Comparative Experiment 2 (method of Test Example 2: cotton aphid, spray, 200 ppm); conditions: cotton aphid on cucumber seedling, 200 ppm (method of Test Example 2)
Description: Cucumber seedling (on the developmental stage of the first true leaf) was planted in a polyethylene cup and 30 heads of cotton aphid (Aphis gossypii) (all stages of life) were released onto the leaves of the cucumber and allowed to stand for 1 day. The diluted solutions 20 mL were sprayed into the seedling. Cucumber (cv; Sagami-hanjiro-fushinari) was grown in a polyethylene cup until the first true leaf was developed. Approximately 30 heads of cotton aphid (Aphis gossypii) (including the adults and the larvae) was released onto the leaves of the […] and next day, the above-mentioned testing drug dilutions 20 mL were sprayed. After 6 days, the number of the surviving insects that were parasitic on the leaves of the cucumber was examined and the controlling value was calculated by the following equation. Controlling value (%)={1-(Cb×Tai)/(Cai×Tb)}×100 wherein the symbols in the formula represent the following descriptions. Cb: Number of the insects before treatment in untreated area; Cai: Number of the surviving parasitic insects at the time of the investigation in untreated area; Tb: Number of the insects before treatment in treated area; Tai: Number of the surviving parasitic insects at the time of the investigation in treated area; Here the “untreated area” represents an area that was sprayed by a diluted solution of the formulation described in the Formulation Example 5 without the compound A with water in the same amount as that of the treated area. […] Here A represents 100%, B represents 90 to 99%, C represents 60 to 89%, D represents 30 to 59% and represents 0 to 29% as a control value.

[2] = tested on: cotton aphid (Aphis gossypii); assay: Comparative Experiment 3 (method of Test Example 3: cotton aphid, irrigation, 200 ppm); conditions: cotton aphid on cucumber seedling, irrigation into plant foot, 200 ppm (method of Test Example 3)
Description: Cucumber seedling (on the developmental stage of the second true leaf) was planted in a polyethylene cup, and the diluted solutions 5 mL were irrigated into the plant foot, and the plants were held at 25° C. in a greenhouse for 7 days. Approximately 30 heads of cotton aphid (Aphis gossypii) (all stages of life) were inoculated onto the cucumber leaves and the plants were held in a greenhouse for additional 6 days, and then the number of the surviving […] parasitic on the cucumber leaves was examined and the controlling value was calculated by the following equation. Controlling value (%)={1-(Cb×Tai)/(Cai×Tb)}×100 wherein the symbols in the formula represent the following descriptions. Cb: Number of the insects before treatment in untreated area; Cai: Number of the surviving parasitic insects at the time of the investigation in untreated area; Tb: Number of the insects before treatment in treated area; Tai: Number of the surviving parasitic insects at the time of the investigation in treated area; Here the “untreated area” represents an area that was sprayed by a diluted solution of the formulation described in the Formulation Example 5 without the compound A with water in the same amount as that of the treated area. […] Here A represents 100%, B represents 90 to 99%, C represents 60 to 89%, D represents 30 to 59% and represents 0 to 29% as a control value.

[3] = tested on: brown planthopper (Nilaparvata lugens); assay: Comparative Experiment 5 (method of Test Example 5: brown planthopper, spray, 200 ppm); conditions: brown planthopper on rice seedling, 200 ppm (method of Test Example 5)
Description: Rice seedling (on the developmental stage of the second true leaf) was planted in a polyethylene cup, and the diluted solutions 10 mL were sprayed. After air drying, 20 heads of 3rd to 4th instar larvae of brown planthopper (Nilaparvata lugens) were released onto the rice leaves and the plants were held at 25° C. in a greenhouse. After 6 days, the number of the surviving insects that were parasitic on the leaves of the rice was examined and the controlling value was calculated by the following equation. Controlling value (%)={1-(Cb×Tai)/(Cai×Tb)}×100 wherein the symbols in the formula represent the following descriptions. Cb: Number of the insects before treatment in untreated area; Cai: Number of the surviving parasitic insects at the time of the investigation in untreated area; Tb: Number of the insects before treatment in treated area; Tai: Number of the surviving parasitic insects at the time of the investigation in treated area; Here the “untreated area” represents an area that was sprayed by a diluted solution of the formulation described in the Formulation Example 5 without the compound A with water in the same amount as that of the treated area. […] Here A represents 100%, B represents 90 to 99%, C represents 60 to 89%, D represents 30 to 59% and represents 0 to 29% as a control value.

[4] = tested on: western corn rootworm (Diabrotica virgifera virgifera); assay: Test Example 10: western corn rootworm on corn seedling immersed in diluted solution, 500 ppm; conditions: 120 h, corn seedling immersed 30 seconds, second instar larvae, after 5 days, 25° C., read-out: Mortality of insects
Description: The compound S-1 was mixed with a mixed solution of acetone and polyoxyethylene sorbitan mono-cocoate (acetone and polyoxyethylene sorbitan mono-cocoate=95 : 5 (weight ratio)) a ratio of 50 μL of the mixed solution per 1 mg of the compound S-1, and the resulting mixtures were then diluted with ion-exchange water containing 0.03% by volume of shindain (registered trademark, manufactured by Sumitomo Chemical Co. Ltd.) so that the concentration of the compound S-1 was set to 500 ppm to prepare the diluted solution of the compound S-1.
Corns (Xea mays) were sown on a tray overlaid with damped KimWipes (registered trademark). After corns were grown for 5 days, the entire seedling of the corn was immersed into the diluted solution for 30 seconds. After the seedling was dried, two grains of the seedling were installed in a plastic petri dish ([…]), and ten heads of western corn rootworm (Diabrotica virgifera virgifera) at the second instar larval stages were released onto the petri dish and the petri dish was covered with the lid. The petri dish was held at 25° C. and after 5 days, the number of died insects was counted and the mortality of insects was calculated by the following equation. Mortality of insects (%)=(Number of dead insects/Number of tested insects)×100
Similarly, using the compounds S-2, S-3, S-7, S-10, O-1 and O-2 instead of the compound S-1, the tests were carried out.

[5] = tested on: cabbage moth (Plutella xylostella); assay: Test Example 7: cabbage moth on sprayed cabbage, 500 ppm; conditions: 120 h, 20 mL/cup sprayed on cabbage, second instar larvae, after 5 days, 25° C., read-out: Mortality of insects
Description: Each of the compounds S-1, S-5, S-7, S-8, S-9, S-10, O-1, and O-2 was made to a formulation according to a similar method to that described in the Formulation example 5 and was then diluted with water so that each of the active ingredient concentration was set to 500 ppm to prepare each of the diluted solution.
A cabbage in the third leaf stage was planted in a polyethylene cup, and thereto was sprayed the diluted solution in ratio 20 mL/cup. After the above-mentioned dilutions were dried, and the stem and leaf thereof was cut and then was stalled in a 50 mL cup, and five heads of cabbage moth (Plutella xylostella) at the second instar larval stages were released into the cup and the cup was covered with the lid. The cup was held at 25° C. and after 5 days, the number of died insects was counted and the mortality of insects was calculated by the following equation. Mortality of insects (%)=(Number of dead insects/Number of tested insects)×100

[6] = tested on: cabbage moth (Plutella xylostella); assay: Test Example 8: cabbage moth on sprayed cabbage, 200 ppm; conditions: 120 h, 20 mL/cup sprayed on cabbage, second instar larvae, after 5 days, 25° C., read-out: Mortality of insects
Description: Each of the compounds S-7, S-8, S-9, S-10, and O-2 was made to a formulation according to a similar method to that described in the Formulation example 5 and was then diluted with water so that each of the active ingredient concentration was set to 200 ppm to prepare each of the diluted solution.
A cabbage in the third leaf stage was planted in a polyethylene cup, and thereto was sprayed the diluted solution in a ratio of 20 mL/cup. After the above-mentioned dilutions were dried, and the stem and leaf thereof was cut and then was installed in a 50 mL cup, and five heads of cabbage moth (Plutella xylostella) at the second instar larval stages were released into the cup and the cup was covered with the lid. The cup was held at 25° C. and after 5 days, the number of died insects was counted and the mortality insects was calculated by the following equation. Mortality of insects (%)=(Number of dead insects/Number of tested insects)×100

[7] = tested on: female adult housefly (Musca domestica); assay: whole plant or invertebrate; conditions: 24 h, read-out: Mortality of insects
Description: Each of the compounds S-2, S-3, S-7, S-8, and N-1 was made to a formulation according to a similar method to that described in the Formulation example 5 and was then diluted with water so that each of the active ingredient concentration was set to 500 ppm to prepare each of the diluted solution.
The bottom of the polyethylene cup having 5.5 cm diameter was matted with the same size of a filter paper, and 0.7 mL of the diluted solution was added dropwise to the filter paper and 30 mg sucrose as bait was placed in the cup uniformly. Ten (10) heads of female adult housefly (Musca domestica) were released into the polyethylene cup and the cup was covered with the lid. After 24 hours, the life and death of housefly was examined and the number of died insects was counted and the mortality of insects was calculated by the following equation. Mortality of insects (%)=(Number of dead insects/Number of tested insects)×100

SMILES	control value, Comparative Experiment 2 [1]	control value, Comparative Experiment 3 [2]	control value, Comparative Experiment 5 [3]	mortality at 500 ppm [4]	mortality at 500 ppm [5]	mortality at 200 ppm [6]	mortality at 500 ppm [7]
CCS(=O)(=O)c1cccnc1-c1ccc([S+]([O-])C(F)(F)F)cn1 (centres unmarked) [Compound S-8]	A (A represents 100%)	A (A represents 100%)	A (A represents 100%)	–	–	–	–
CCS(=O)(=O)c1cccnc1-c1ccc(OS(=O)(=O)CC(F)(F)F)cn1 [Compound O-2]	–	–	–	≥ 80%	≥ 80%	≥ 80%	–
FC(F)(F)Sc1ccc(-c2ccc(C(F)(F)F)cc2Cl)nc1 [Compound V-11, reference compound]	E (represents 0 to 29% as a control value)	E (represents 0 to 29% as a control value)	E (represents 0 to 29% as a control value)	–	–	–	–
CCS(=O)(=O)c1cccnc1-c1ccc(SCC(F)(F)C(F)(F)F)cn1 [Compound S-4]	–	–	–	≥ 80%	–	–	–
CCS(=O)(=O)c1cccnc1-c1ccc(SC(F)(F)F)cn1 [Compound S-7]	A (A represents 100%)	A (A represents 100%)	A (A represents 100%)	≥ 80%	≥ 80%	≥ 80%	100%
CCS(=O)(=O)c1cccnc1-c1ccc(SCC(F)(F)F)cn1 [Compound S-1]	A (A represents 100%)	B (B represents 90 to 99%)	A (A represents 100%)	–	≥ 80%	–	–
[O-][S+](c1ccc(-c2ccc(C(F)(F)F)cc2Cl)nc1)C(F)(F)F (centres unmarked) [Compound V-12, reference compound]	E (represents 0 to 29% as a control value)	E (represents 0 to 29% as a control value)	E (represents 0 to 29% as a control value)	–	–	–	–
CCS(=O)(=O)c1cccnc1-c1ccc(OS(=O)(=O)C(F)(F)F)cn1 [Compound O-1]	–	–	–	≥ 80%	≥ 80%	–	–
FC(F)(F)CSc1ccc(-c2ccc(C(F)(F)F)cc2)nc1 [Compound V-7, reference compound]	E (represents 0 to 29% as a control value)	E (represents 0 to 29% as a control value)	D (D represents 30 to 59%)	–	–	–	–
